1 molecule from ChEMBL document CHEMBL5223077, “Recent advances on synthesis and biological activities of aurones” (Bioorg Med Chem, 2021) can be followed below.

Test [1] deals with Mycobacterium tuberculosis. The test can be described thus: Antimycobacterial activity against multidrug resistant Mycobacterium tuberculosis. Type of test: functional.
In test [2] the test system is Mycobacterium tuberculosis. In words: Antimycobacterial activity against extensively drug resistant Mycobacterium tuberculosis. The class given is functional.

Converted amounts (≈) assume the structure as drawn.

By MIC is commonly meant the lowest concentration found to suppress growth. A lower MIC goes with inhibition by little substance. As to `CC(=O)N1/C(=C\c2ccc(-c3ccsc3)cc2)C(=O)c2ccccc21`, the MIC in test [1] and in test [2] was 7.55 µM (≈ 2.61 µg/mL) throughout.
